Measurements published in ChEMBL document CHEMBL1201862, “PubChem BioAssay data set” (2004).
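Protocol summary: plate cells (96-well), add compound at 5 concentrations, incubate 48 h, interpolate endpoints linearly. GI50 is the concentration that inhibits growth by half.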 Active and inactive are the calls of the source. No stated cut-off is given here; in the data, active = GI50 up to about 1.1 µM and inactive = higher.

Experiments:
Experiment in all cases: DTP human tumour cell line panel, 48 h
786-0 = tested on: 786-0
A498 = tested on: A498
A549 = tested on: A549
ACHN = tested on: ACHN
BT-549 = tested on: BT-549
CAKI-1 = tested on: CAKI-1
CCRF-CEM = tested on: CCRF-CEM
COLO 205 = tested on: COLO 205
DU-145 = tested on: DU-145
EKVX = tested on: EKVX
HCC 2998 = tested on: HCC 2998
HCT-116 = tested on: HCT-116
HCT-15 = tested on: HCT-15
HOP-62 = tested on: HOP-62
HT-29 = tested on: HT-29
Hs-578T = tested on: Hs-578T
IGROV-1 = tested on: IGROV-1
K562 = tested on: K562
KM12 = tested on: KM12
LOX IMVI = tested on: LOX IMVI
M14 = tested on: M14
MCF7 = tested on: MCF7
MDA-MB-231 = tested on: MDA-MB-231
MDA-MB-435 = tested on: MDA-MB-435
MDA-N = tested on: MDA-N
MOLT-4 = tested on: MOLT-4
NCI-H226 = tested on: NCI-H226
NCI-H23 = tested on: NCI-H23
NCI-H460 = tested on: NCI-H460
NCI-H522 = tested on: NCI-H522
NCI/ADR-RES = tested on: NCI/ADR-RES
OVCAR-3 = tested on: OVCAR-3
OVCAR-4 = tested on: OVCAR-4
OVCAR-5 = tested on: OVCAR-5
OVCAR-8 = tested on: OVCAR-8
PC-3 = tested on: PC-3
RPMI-8226 = tested on: RPMI-8226
RXF 393 = tested on: RXF 393
SF-268 = tested on: SF-268
SF-295 = tested on: SF-295
SF-539 = tested on: SF-539
SK-MEL-28 = tested on: SK-MEL-28
SK-MEL-2 = tested on: SK-MEL-2
SK-MEL-5 = tested on: SK-MEL-5
SK-OV-3 = tested on: SK-OV-3
SN12C = tested on: SN12C
SNB-19 = tested on: SNB-19
SNB-75 = tested on: SNB-75
SW-620 = tested on: SW-620
T47D = tested on: T47D
TK-10 = tested on: TK-10
U-251 = tested on: U-251
UACC-257 = tested on: UACC-257
UACC-62 = tested on: UACC-62
UO-31 = tested on: UO-31
HOP-92 = tested on: HOP-92
Malme-3M = tested on: Malme-3M
HL-60 = tested on: HL-60
SR = tested on: SR

Structure (SMILES): CC(C)CC1C(=O)OC(C)(C)OC1=O
- GI50 (786-0): > 100 µM (inactive)
- GI50 (A498): > 100 µM (inactive)
- GI50 (A549): > 100 µM (inactive)
- GI50 (ACHN): > 100 µM (inactive)
- GI50 (BT-549): > 100 µM (inactive)
- GI50 (CAKI-1): > 100 µM (inactive)
- GI50 (CCRF-CEM): > 100 µM (inactive)
- GI50 (COLO 205): > 100 µM (inactive)
- GI50 (DU-145): > 100 µM (inactive)
- GI50 (EKVX): > 100 µM (inactive)
- GI50 (HCC 2998): > 100 µM (inactive)
- GI50 (HCT-116): > 100 µM (inactive)
- GI50 (HCT-15): > 100 µM
- GI50 (HOP-62): > 100 µM (inactive)
- GI50 (HT-29): > 100 µM (inactive)
- GI50 (Hs-578T): > 100 µM (inactive)
- GI50 (IGROV-1): > 100 µM (inactive)
- GI50 (K562): > 100 µM (inactive)
- GI50 (KM12): > 100 µM (inactive)
- GI50 (LOX IMVI): > 100 µM (inactive)
- GI50 (M14): > 100 µM (inactive)
- GI50 (MCF7): > 100 µM (inactive)
- GI50 (MDA-MB-231): > 100 µM (inactive)
- GI50 (MDA-MB-435): > 100 µM (inactive)
- GI50 (MDA-N): > 100 µM (inactive)
- GI50 (MOLT-4): > 100 µM (inactive)
- GI50 (NCI-H226): > 100 µM (inactive)
- GI50 (NCI-H23): > 100 µM (inactive)
- GI50 (NCI-H460): > 100 µM (inactive)
- GI50 (NCI-H522): > 100 µM (inactive)
- GI50 (NCI/ADR-RES): > 100 µM (inactive)
- GI50 (OVCAR-3): > 100 µM (inactive)
- GI50 (OVCAR-4): > 100 µM (inactive)
- GI50 (OVCAR-5): > 100 µM (inactive)
- GI50 (OVCAR-8): > 100 µM (inactive)
- GI50 (PC-3): > 100 µM (inactive)
- GI50 (RPMI-8226): > 100 µM (inactive)
- GI50 (RXF 393): > 100 µM (inactive)
- GI50 (SF-268): > 100 µM (inactive)
- GI50 (SF-295): > 100 µM (inactive)
- GI50 (SF-539): > 100 µM (inactive)
- GI50 (SK-MEL-28): > 100 µM (inactive)
- GI50 (SK-MEL-2): > 100 µM (inactive)
- GI50 (SK-MEL-5): > 100 µM (inactive)
- GI50 (SK-OV-3): > 100 µM (inactive)
- GI50 (SN12C): > 100 µM (inactive)
- GI50 (SNB-19): > 100 µM (inactive)
- GI50 (SNB-75): > 100 µM (inactive)
- GI50 (SW-620): > 100 µM (inactive)
- GI50 (T47D): > 100 µM (inactive)
- GI50 (TK-10): > 100 µM (inactive)
- GI50 (U-251): > 100 µM (inactive)
- GI50 (UACC-257): > 100 µM (inactive)
- GI50 (UACC-62): > 100 µM (inactive)
- GI50 (UO-31): > 100 µM (inactive)

Structure (SMILES): COC(=O)[C@H](Cc1ccccc1)NC(=O)NCCN(CCNC(=O)N[C@@H](Cc1ccccc1)C(=O)OC)C(=O)N[C@@H](Cc1ccccc1)C(=O)OC
- GI50 (786-0): 19.5 µM (inactive)
- GI50 (A498): 32.9 µM (inactive)
- GI50 (A549): 29 µM (inactive)
- GI50 (ACHN): 24.5 µM (inactive)
- GI50 (BT-549): 18.9 µM (inactive)
- GI50 (CAKI-1): > 45.8 µM (inactive)
- GI50 (COLO 205): 21.9 µM (inactive)
- GI50 (DU-145): 21.1 µM (inactive)
- GI50 (EKVX): 30.6 µM (inactive)
- GI50 (HCC 2998): 20.3 µM (inactive)
- GI50 (HCT-116): 20.3 µM (inactive)
- GI50 (HCT-15): > 50.1 µM
- GI50 (HOP-62): 20.7 µM (inactive)
- GI50 (HOP-92): 35.4 µM (inactive)
- GI50 (Hs-578T): 23.8 µM (inactive)
- GI50 (K562): 22.3 µM (inactive)
- GI50 (KM12): 20.9 µM (inactive)
- GI50 (LOX IMVI): 38.4 µM (inactive)
- GI50 (M14): 25.6 µM (inactive)
- GI50 (MCF7): 26 µM (inactive)
- GI50 (MDA-MB-231): 23.7 µM (inactive)
- GI50 (MDA-MB-435): 22.3 µM (inactive)
- GI50 (MDA-N): 18.2 µM (inactive)
- GI50 (MOLT-4): 20.2 µM (inactive)
- GI50 (Malme-3M): 22 µM (inactive)
- GI50 (NCI-H226): 18.2 µM (inactive)
- GI50 (NCI-H23): 18.9 µM (inactive)
- GI50 (NCI-H460): 18.8 µM (inactive)
- GI50 (NCI-H522): 15.7 µM (inactive)
- GI50 (NCI/ADR-RES): > 100 µM (inactive)
- GI50 (OVCAR-3): 19.5 µM (inactive)
- GI50 (OVCAR-4): 15.2 µM (inactive)
- GI50 (OVCAR-5): 20.4 µM (inactive)
- GI50 (OVCAR-8): 18.3 µM (inactive)
- GI50 (PC-3): 22.3 µM (inactive)
- GI50 (RPMI-8226): 25.3 µM (inactive)
- GI50 (RXF 393): 16.9 µM (inactive)
- GI50 (SF-268): 17 µM (inactive)
- GI50 (SF-295): 18.9 µM (inactive)
- GI50 (SF-539): 18.8 µM (inactive)
- GI50 (SK-MEL-28): 19.4 µM (inactive)
- GI50 (SK-MEL-2): 21.8 µM (inactive)
- GI50 (SK-MEL-5): 20.7 µM (inactive)
- GI50 (SK-OV-3): 31.9 µM (inactive)
- GI50 (SN12C): > 10 µM (inactive)
- GI50 (SNB-19): 24.7 µM (inactive)
- GI50 (SNB-75): 20.7 µM (inactive)
- GI50 (SW-620): 22.8 µM (inactive)
- GI50 (T47D): 22.6 µM (inactive)
- GI50 (TK-10): 20.1 µM (inactive)
- GI50 (U-251): 21.8 µM (inactive)
- GI50 (UACC-257): 20.7 µM (inactive)
- GI50 (UACC-62): 25.5 µM (inactive)
- GI50 (UO-31): 24.3 µM (inactive)

Structure (SMILES): CC(C)(Oc1ccc(C2C[C@H]2Cl)cc1)C(=O)O (stereo partly specified)
- GI50 (786-0): > 100 µM (inactive)
- GI50 (A498): > 100 µM (inactive)
- GI50 (A549): > 100 µM (inactive)
- GI50 (BT-549): > 100 µM (inactive)
- GI50 (CAKI-1): > 100 µM (inactive)
- GI50 (COLO 205): > 100 µM (inactive)
- GI50 (DU-145): > 100 µM (inactive)
- GI50 (EKVX): > 100 µM (inactive)
- GI50 (HCT-116): > 100 µM (inactive)
- GI50 (HCT-15): > 100 µM
- GI50 (HL-60): > 100 µM (inactive)
- GI50 (HOP-62): > 100 µM (inactive)
- GI50 (HOP-92): > 100 µM (inactive)
- GI50 (Hs-578T): > 100 µM (inactive)
- GI50 (IGROV-1): > 100 µM (inactive)
- GI50 (K562): > 100 µM (inactive)
- GI50 (KM12): > 100 µM (inactive)
- GI50 (LOX IMVI): > 100 µM (inactive)
- GI50 (MCF7): > 100 µM (inactive)
- GI50 (MDA-MB-231): > 100 µM (inactive)
- GI50 (MDA-MB-435): > 100 µM (inactive)
- GI50 (MDA-N): > 100 µM (inactive)
- GI50 (MOLT-4): > 100 µM (inactive)
- GI50 (NCI-H460): > 100 µM (inactive)
- GI50 (NCI-H522): > 100 µM (inactive)
- GI50 (OVCAR-3): > 100 µM (inactive)
- GI50 (OVCAR-4): > 100 µM (inactive)
- GI50 (OVCAR-5): > 100 µM (inactive)
- GI50 (PC-3): > 100 µM (inactive)
- GI50 (RPMI-8226): > 100 µM (inactive)
- GI50 (RXF 393): > 100 µM (inactive)
- GI50 (SF-295): > 100 µM (inactive)
- GI50 (SF-539): > 100 µM (inactive)
- GI50 (SK-MEL-28): > 100 µM (inactive)
- GI50 (SK-MEL-2): > 100 µM (inactive)
- GI50 (SK-MEL-5): > 100 µM (inactive)
- GI50 (SK-OV-3): > 100 µM (inactive)
- GI50 (SN12C): > 100 µM (inactive)
- GI50 (SNB-19): > 100 µM (inactive)
- GI50 (SNB-75): > 100 µM (inactive)
- GI50 (SR): > 100 µM (inactive)
- GI50 (SW-620): > 100 µM (inactive)
- GI50 (T47D): 15.3 µM (inactive)
- GI50 (TK-10): > 100 µM (inactive)
- GI50 (U-251): > 100 µM (inactive)
- GI50 (UACC-257): > 100 µM (inactive)
- GI50 (UACC-62): > 100 µM (inactive)
